Source: patent US20080221020A1, “Dendrimers as Molecular Translocators” (THE REGENTS OF THE UNIVERSITY OF CALIFORNIA, priority 2002, published 2008)

Key:
[1] = tested on: HeLa S3 human epithelioid cervical carcinoma cells; test: Cellular uptake of fluorescein-labeled dendrimers, quantified by flow cytometry (FACS); type: cell-based; conditions: for Percentage of Cellular Uptake: 4 hours after treatment, 37° C., average of two experiments; for saturation of uptake into cells: with increasing transporter concentration; for delivery to HeLa S3 cells: qualitative
Description: HeLa S3, human epithelioid cervical carcinoma cells of approximately 50% confluency were treated with concentrations varying from 250 nM to 50 μM of each of the molecular transporters 10, 11, 12, 13, and 41 at 37° C. The molecular transporters were directly added to the media (Dulbecco's modified eagle medium containing 10% fetal bovine serum and 1× antibiotic-antimycotic), and the delivery to the cells was visualized by microscopy.
Quantification of the uptake of the molecular transporter into the cells was performed by flow cytometry 4 hours after treatment. Adherent cells, grown on 6 well plates, were displaced with trypsin, after which the cells were washed with phosphate-buffered saline (PBS). The final cell pellet was collected by centrifugation and resuspended in PBS to a concentration of approximately 1×10^6 cells/mL. A minimum of 20,000 cell events were counted and analyzed using the FACSCalibur and CellQuest brand software (BD Biosciences, San Jose, Calif.).

[2] = tested on: HeLa S3 cells; test: Sulphorhodamine B (SRB) cytotoxicity assay; type: cell-based, human; conditions: 4 hour treatment, concentrations up to 50 μM
Description: The cells were treated with varying concentrations (250 nM to 50 μM) of compound 12 for 4 hours at 37° C. The cells were fixed with trichloroacetic acid and were then subsequently stained with SRB dye. The cells were washed with water, and the SRB-bound complexes were solubilized in Tris buffer. The absorbance at 572 nm was measured in each sample.

[3] = Solubility in water observed on isolation; type: physicochemical; conditions: isolated salt

Row | solubility in H2O [3] | SMILES | Percentage of Cellular Uptake ([1]; 250 nM) [%] | Percentage of Cellular Uptake ([1]; 500 nM) [%] | Percentage of Cellular Uptake ([1]; 1 μM) [%] | Percentage of Cellular Uptake ([1]; 5 μM) [%] | Percentage of Cellular Uptake ([1]; 10 μM) [%] | Percentage of Cellular Uptake ([1]; 25 μM) [%] | Percentage of Cellular Uptake ([1]; 50 μM) [%] | saturation of uptake into cells [1] | delivery to HeLa S3 cells [1] | cell lysis [2] | cytotoxic effect [2]
1 | – | Cl.Cl.Cl.N=C(N)NCCNC(=O)CCOCC(COCCC(=O)NCCNC(=N)N)(COCCC(=O)NCCNC(=N)N)NC(=O)CCNC(=S)Nc1ccc(-c2c3ccc(=O)cc-3oc3cc(O)ccc23)c(C(=O)O)c1 (stereo not shown) [Compound 10] | 1.845 | 2.89 | 2.85 | 12.44 | 27.91 | 59.15 | 92.07 | approximately 100% | – | – | –
2 | – | Cl.Cl.Cl.Cl.Cl.Cl.N=C(N)NCCNC(=O)CCOCC(COCCC(=O)NCCNC(=N)N)(COCCC(=O)NCCNC(=N)N)NC(=O)CCNC(=O)c1cc(C(=O)NCCNC(=O)CCNC(=S)Nc2ccc(-c3c4ccc(=O)cc-4oc4cc(O)ccc34)c(C(=O)O)c2)cc(C(=O)NCCC(=O)NC(COCCC(=O)NCCNC(=N)N)(COCCC(=O)NCCNC(=N)N)COCCC(=O)NCCNC(=N)N)c1 (stereo not shown) [Compound 11] | – | – | – | – | – | – | – | approximately 100% | excellent delivery | – | –
3 | – | Cl.Cl.Cl.Cl.Cl.Cl.Cl.Cl.Cl.N=C(N)NCCNC(=O)CCOCC(COCCC(=O)NCCNC(=N)N)(COCCC(=O)NCCNC(=N)N)NC(=O)CCNC(=O)CCOCC(COCCC(=O)NCCC(=O)NC(COCCC(=O)NCCNC(=N)N)(COCCC(=O)NCCNC(=N)N)COCCC(=O)NCCNC(=N)N)(COCCC(=O)NCCC(=O)NC(COCCC(=O)NCCNC(=N)N)(COCCC(=O)NCCNC(=N)N)COCCC(=O)NCCNC(=N)N)NC(=O)CCNC(=S)Nc1ccc(-c2c3ccc(=O)cc-3oc3cc(O)ccc23)c(C(=O)O)c1 (stereo not shown) [Compound 12] | – | – | – | – | – | – | – | approximately 100% | excellent delivery | did not cause cell lysis | no cytotoxic effect
4 | – | Cl.Cl.Cl.Cl.Cl.Cl.Cl.Cl.Cl.Cl.Cl.Cl.N=C(N)NCCNC(=O)CCOCC(COCCC(=O)NCCNC(=N)N)(COCCC(=O)NCCNC(=N)N)NC(=O)CCNC(=O)CCOCC(COCCC(=O)NCCC(=O)NC(COCCC(=O)NCCNC(=N)N)(COCCC(=O)NCCNC(=N)N)COCCC(=O)NCCNC(=N)N)NC(=O)CCNC(=O)CCOCC(COCCC(=O)NCCC(=O)NC(COCCC(=O)NCCC(=O)NC(COCCC(=O)NCCNC(=N)N)(COCCC(=O)NCCNC(=N)N)COCCC(=O)NCCNC(=N)N)COCCC(=O)NCCC(=O)NC(COCCC(=O)NCCNC(=N)N)(COCCC(=O)NCCNC(=N)N)COCCC(=O)NCCNC(=N)N)NC(=O)CCNC(=S)Nc1ccc(-c2c3ccc(=O)cc-3oc3cc(O)ccc23)c(C(=O)O)c1 (stereo not shown) [Compound 13] | – | – | – | – | – | – | – | approximately 100% | excellent delivery | – | –
5 | barely soluble in H2O | N=C(N)NCCNC(=O)CCCCCNC(=O)CCNC(=S)Nc1ccc(-c2c3ccc(=O)cc-3oc3cc(O)ccc23)c(C(=O)O)c1 [Compound 41, 5-(3-{2-[5-(2-Guanidinoethylcarbamoyl)-pentylcarbamoyl]-ethyl}-thioureido)-2-(6-hydroxy-3-oxo-3H-xanthen-9-yl)-benzoic acid] | 1.95 | 2.065 | 3.025 | 16.07 | 32.4 | 67.47 | 86.71 | approximately 100% | – | – | –
